From ChEMBL document CHEMBL1145235, “Optimization of pyrrolidinone based HIV protease inhibitors” (Bioorg Med Chem Lett, 2005)

Tests used:
MT4 = experiment: Antiviral inhibitory concentration against human immunodeficiency virus type 1 in MT-4 cell culture; assay type: functional, cell-based
[1] = molecular target: Human immunodeficiency virus type 1 protease (Human immunodeficiency virus 1, UniProt Q72874); experiment: Inhibition constant against HIV Protease

SMILES | IC50 (MT4) | Ki [1]
COCCOCCOc1ccc(C[C@H](CC(=O)CN2C(=O)[C@@H](Cc3ccccc3)C[C@@H]2Cc2ccccc2)C(=O)NC2c3ccccc3C[C@H]2O)cc1 (some centres undefined) | 93 nM | 0.02 nM
CN1CCN(C(=O)COc2ccc(C[C@H](CC(=O)CN3C(=O)[C@@H](Cc4ccccc4)C[C@@H]3Cc3ccccc3)C(=O)NC3c4ccccc4C[C@H]3O)cc2)CC1 (some centres undefined) | 130 nM | 0.05 nM
O=C(C[C@@H](Cc1ccccc1)C(=O)NC1c2ccccc2C[C@H]1O)CN1C(=O)[C@@H](Cc2ccccc2)C[C@@H]1Cc1ccc(OCc2ccccc2)cc1 (some centres undefined) | 550 nM | 0.13 nM
O=C(C[C@@H](Cc1ccc(OCCN2CCOCC2)cc1)C(=O)NC1c2ccccc2C[C@H]1O)CN1C(=O)[C@@H](Cc2ccccc2)C[C@@H]1Cc1ccccc1 (some centres undefined) | 83 nM | 0.14 nM
NC(=O)COc1ccc(C[C@H](CC(=O)CN2C(=O)[C@@H](Cc3ccccc3)C[C@@H]2Cc2ccccc2)C(=O)NC2c3ccccc3C[C@H]2O)cc1 (some centres undefined) | 360 nM | 0.07 nM
O=C(C[C@@H](Cc1ccccc1)C(=O)NC1c2ccccc2C[C@H]1O)CN1C(=O)[C@@H](Cc2ccccc2)C[C@@H]1Cc1ccccc1 (some centres undefined) | 720 nM | 0.05 nM
O=C(C[C@@H](Cc1ccccc1)C(=O)NC1c2ccccc2C[C@H]1O)CN1C(=O)[C@@H](Cc2ccccc2)C[C@@H]1Cc1ccc(OCCO)cc1 (some centres undefined) | 480 nM | 0.3 nM
O=C(C[C@@H](Cc1ccc(OCc2ccccn2)cc1)C(=O)NC1c2ccccc2C[C@H]1O)CN1C(=O)[C@@H](Cc2ccccc2)C[C@@H]1Cc1ccccc1 (some centres undefined) | 380 nM | 0.07 nM
O=C(C[C@@H](Cc1ccc(OCc2ccccc2)cc1)C(=O)NC1c2ccccc2C[C@H]1O)CN1C(=O)[C@@H](Cc2ccccc2)C[C@@H]1Cc1ccccc1 (some centres undefined) | 920 nM | 0.11 nM
O=C(C[C@@H](Cc1ccc(O)cc1)C(=O)NC1c2ccccc2C[C@H]1O)CN1C(=O)[C@@H](Cc2ccccc2)C[C@@H]1Cc1ccccc1 (some centres undefined) | 320 nM | 0.06 nM
O=C(C[C@@H](Cc1ccccc1)C(=O)NC1c2ccccc2C[C@H]1O)CN1C(=O)[C@@H](Cc2ccccc2)C[C@@H]1Cc1ccc(OCCN2CCOCC2)cc1 (some centres undefined) | 960 nM | 1.3 nM
O=C(C[C@@H](Cc1ccccc1)C(=O)NC1c2ccccc2C[C@H]1O)CN1C(=O)[C@@H](Cc2ccccc2)C[C@@H]1Cc1ccc(OCC(=O)N2CCOCC2)cc1 (some centres undefined) | 200 nM | 0.1 nM
O=C(C[C@@H](Cc1ccc(OCC(=O)N2CCOCC2)cc1)C(=O)NC1c2ccccc2C[C@H]1O)CN1C(=O)[C@@H](Cc2ccccc2)C[C@@H]1Cc1ccccc1 (some centres undefined) | 63 nM | 0.02 nM
O=C(C[C@@H](Cc1ccccc1)C(=O)NC1c2ccccc2C[C@H]1O)CN1C(=O)[C@@H](Cc2ccccc2)C[C@@H]1Cc1ccc(O)cc1 (some centres undefined) | 200 nM | 
O=C(C[C@@H](Cc1ccc(OCCO)cc1)C(=O)NC1c2ccccc2C[C@H]1O)CN1C(=O)[C@@H](Cc2ccccc2)C[C@@H]1Cc1ccccc1 (some centres undefined) | 94 nM | 0.02 nM
